According to EP0727938B1, “DEVICE AND METHOD FOR PHOTOACTIVATION” (Cerus Corporation, priority 1993, dated 1995):

Experiments:
[1] = tested on: viruses; conditions: 300 ug/ml of 8-MOP, one hour or more of irradiation with ultraviolet light; cited from earlier work
[2] = non activated 8-MOP; cited from earlier work
[3] = tested on: human platelets; assay: Platelet activation: GMP140 expression measured with CD62 antibody by flow cytometry; format: cell-based; conditions: for Activation, PMA Activated, Day 3: storage Day 3, PMA 10-^7 M; for Activation, PMA Activated, Day 5: storage Day 5, PMA 10-^7 M
From the text: When platelets become activated, an alpha granule membrane glycoprotein called GMP140 becomes exposed on the platelet surface. Less than (5%) of fresh, normal unstimulated platelets express detectable GMP 140 levels by flow cytometry. See generally M.J. Metzelaar, Studies on the Expression of Activation-Markers on Human Platelets (Thesis 1991).
To measure GMP140, a small aliquot of platelet rich plasma is placed in HEPES buffer containing a GMP140-binding antibody or control mouse IgG. CD62 is a commercially available monoclonal antibody which binds to GMP 140 (available from Sanbio, Uden, the Netherlands; Caltag Labs, So. San Francisco, CA, and Becton Dickinson, Mountain View, CA). After a fifteen minute incubation, Goat Anti-Mouse IgG conjugated to FITC is added to the tube in saturating amounts. Finally, the cells are diluted in isotonic saline, fixed with paraformaldehyde and analyzed on a FACSCAN™ (Becton Dickinson, Mountain View, CA). The positive control is made by adding Phorbol Myristate Acetate (PMA) to the test system at a final concentration of 10-^7 M.
In this example, CD62 was employed to measure the impact, if any, of irradiation alone on platelet activation. The antibody was stored in small aliquots (0.01 mg/ml) at -40°C prior to use. A mouse IgG control (0.05 mg/ml) (Becton Dickinson, Mountain View, CA #9040) 5X concentrated was employed. At time of use, this was diluted 1:5 in HEPES buffer. The secondary antibody was goat Anti-Mouse IgG conjugated to FITC (TAGO, Burlingame, CA #3506). This was stored in small aliquots at -20°C. Phorbol Myristate Acetate (PMA) (Sigma, St. Louis, MO) was stored at -40°C. At time of use, this was dissolved in DMSO (working concentration was 1.62 X 10^-5 M).
16% Paraformaldehyde (PFA) (Sigma, St. Louis, MO) was prepared by adding 16 grams paraformaldehyde to 100 ml de-ionized water. This was heated to 70°C, whereupon 3 M NaOH was added dropwise until the solution was clear. The solution was cooled and the pH was adjusted to 7.4 with 1 N HCl. This was filtered and stored. A commercially available isotonic buffer was used: Hematall Isotonic Diluent (Fisher # CS 606-20).
Following irradiation, the platelets were stored for 5 days. At specific time points, aliquots were taken and processed.
Processing involved adding an aliquot (e.g. 5 microliters) of platelet concentrate to each microcentrifuge tube containing the antibody and appropriate reagents and this was mixed very gently by vortex. The samples were incubated for 15 minutes at room temperature.
The Goat anti-Mouse IgG-FITC (diluted 1:10 in HEPES buffer) was added (5 microliters) to each tube and the solution was mixed by gentle vortex. The samples were incubated for an additional 15 minutes at room temperature.
Isoton II was added (1 ml) to each tube and mixed gently with a polypropylene disposable pipette. 8% PFA in HEPES (150 microliters) was added to each diluted sample to final 1%. The platelets were analyzed on the FACSCAN™.
Shorter Irradiation Times.

[4] = Photochemical breakdown measured by reverse phase HPLC; format: physicochemical; conditions: Figure 7
[5] = tested on: single stranded 5S ribosomal RNA; conditions: irradiation at 4°C compared to 20°C; cited from earlier work

COc1c2occc2cc2ccc(=O)oc12 [8-MOP, 8-methoxypsoralen]
inactivation of viruses [1]: can effectively inactivate viruses
mutagenicity [2]: not mutagenic
damage to platelets after irradiation in the presence of psoralen ([3]; 10 ug/ml 8-MOP, five minutes UVA, 25°C, stored for 5 days): without damage to the cells

Cc1oc2c(C)c3oc(=O)cc(C)c3cc2c1CN [AMT, 4'-aminomethyl-4,5',8-trimethylpsoralen]
degradation (photochemical breakdown) [4]: degrades more quickly than 8-MOP

Cc1oc2c(C)c3oc(=O)cc(C)c3cc2c1CO [HMT, 4'-hydroxymethyl-4,5',8-trimethylpsoralen]
enhancement of covalent addition of HMT to 5S rRNA [5]: two fold

CCCCCCCCCCCCCC(=O)O[C@@H]1[C@@H](C)[C@@]2(O)[C@@H](C=C(CO)C[C@]3(O)C(=O)C(C)=C[C@@H]23)[C@@H]2C(C)(C)[C@]12OC(C)=O [PMA, Phorbol Myristate Acetate]
Activation, PMA Activated, Day 3 ([3]; Control (no irradiation)): 85%
Activation, PMA Activated, Day 5 ([3]; Control (no irradiation)): 89%
Activation, PMA Activated, Day 3 ([3]; UV 5'): 87%
Activation, PMA Activated, Day 5 ([3]; UV 5'): 86%
Activation, PMA Activated, Day 3 ([3]; UV 10'): 84%
Activation, PMA Activated, Day 5 ([3]; UV 10'): 79%
